The term IC50 denotes the concentration that gives 50% inhibition. A higher IC50 goes with weaker potency.

One test deals with A375. As to the kind of experiment: 48 h Cytotoxicity A375. The class given is cell-based. The settings on record: Homo sapiens, A-375.
For test [1], the target named is EmCV Cap-dependent translation. As to the kind of experiment: In vitro translation assay, FF-EmCV-Ren construct, cap-dependent (FF luciferase). It is filed as biochemical, rabbit reticulocyte lysates. An excerpt: (§1) The bicistronic dual-reporter constructs that contain the firefly luciferase (FF) sequence, followed by the (encephalomyocarditis virus) EmCV and Hepatitis C virus (HCV) IRES, respectively, and the Renilla reniformis (Ren) luciferase sequence, has been previously described (Bordeleau Me., et al. Functional characterization of IRESes by an inhibitor of the RNA helicase eIF4A. Nature chemical biology. 2006; 2:213-20). For measurement of translation from the FF-EmCV-Ren and FF-HCV-Ren constructs, rabbit reticulocyte lysates (RRL) (Life Technologies, Carlsbad, Calif., USA) and the Dual-Glo (Promega, Madison, Wis., USA) read-outs were chosen. Two μl rabbit reticulocyte lysates mixed with Translation Mix 20× (-Met) and Translation Mix 20× (-Leu) in a ratio of 1:1 were pre-incubated with test compounds in 1536-well plates for 1 h at room temperature. Then, translation was started by adding 0.1 μg RNA per well and incubated for 2 h at 30° C. After a short chill phase, 2.5 μl Dual-Glo reagent 1 was added to each well and incubated for 10 min before reading the FF luciferase activity with the ViewLux uHTS Microplate Imager (Perkin Elmer, Waltham, Mass., USA). Directly after, 2.5 μl Dual-Glo reagent 2 was dispensed to each well and incubated at room temperature for 10 min before reading the Ren luciferase activity on the ViewLux. To exclude the possibility that test compounds interfere with any of the luciferase activities, a counter assay was performed in which the compounds were added after the completion of the in vitro translation.

Test [2] addresses EmCV Cap-independent translation. In words: In vitro translation assay, FF-EmCV-Ren construct, cap-independent (Ren luciferase). The class given is biochemical, rabbit reticulocyte lysates.
Text: as §1

Test [3] has as its target HCV cap-dependent translation. In words: In vitro translation assay, FF-HCV-Ren construct, cap-dependent (FF luciferase). It is filed as biochemical, rabbit reticulocyte lysates.
Text: as §1

Test [4] concerns the target HCV cap-independent translation. In words: In vitro translation assay, FF-HCV-Ren construct, cap-independent (Ren luciferase). It is filed as biochemical, rabbit reticulocyte lysates.
Text: as §1

For `O=C(/C(Br)=C/c1cncc(F)c1)c1c(-c2ccccc2)c2cc(Cl)ccc2[nH]c1=O` (single isomer, unassigned) [Compound 110, 3-[(2Z)-2-bromo-3-(5-fluoro(3-pyridyl))prop-2-enoyl]-6-chloro-4-phenylhydroquinolin-2-one], the IC50 (in the test with A375; in test [1]; in test [2]; in test [3]; in test [4]) was 2 to 10 µM throughout.
Regarding `O=C(/C=C/c1nc2ccccc2[nH]1)c1c(-c2ccc(C(F)(F)F)cc2)c2cc(Cl)ccc2[nH]c1=O` [Compound 1, 3-(3-1H-Benzoimidazol-2-yl-acryloyl)-6-chloro-4-(4-trifluoromethyl-phenyl)-1H-quinolin-2-one], the IC50 (with A375; in test [1]; in test [2]; in test [3]; in test [4]) was 2 to 10 µM throughout.
Take `O=C(/C=C/c1nc2ccccc2[nH]1)c1c(-c2ccc(OC(F)(F)F)cc2)c2cc(Cl)ccc2[nH]c1=O` [Compound 2, 3-(3-1H-Benzoimidazol-2-yl-acryloyl)-6-chloro-4-(4-trifluoromethoxy-phenyl)-1H-quinolin-2-one]: the IC50 in the test on A375 was under 2 µM; in test [1], 2 to 10 µM; in test [2] it was 2 to 10 µM; in test [3] it was 2 to 10 µM; in test [4], 2 to 10 µM.
For `COc1ccc(-c2c(C(=O)/C=C/c3nc4ccccc4[nH]3)c(=O)[nH]c3ccc(Cl)cc23)cc1` [Compound 3, 3-(3-1H-Benzoimidazol-2-yl-acryloyl)-6-chloro-4-(4-methoxy-phenyl)-1H-quinolin-2-one], the IC50 is under 2 µM with A375; 10 to 20 µM in test [1]; over 20 µM in test [2]; 10 to 20 µM in test [3]; over 20 µM in test [4].
Consider `Cc1ccc(-c2c(C(=O)/C=C/c3nc4ccccc4[nH]3)c(=O)[nH]c3ccc(Cl)cc23)cc1` [Compound 4, 3-(3-1H-Benzoimidazol-2-yl-acryloyl)-6-chloro-4-p-tolyl-1H-quinolin-2-one], for which the 50% inhibitory concentration (IC50) (with A375; in test [1]; in test [2]; in test [3]; in test [4]) was 2 to 10 µM each time.
For `O=C(/C=C/c1nc2ccccc2[nH]1)c1c(-c2ccc(Cl)cc2)c2cc(Cl)ccc2[nH]c1=O` [Compound 5, 3-(3-1H-Benzoimidazol-2-yl-acryloyl)-6-chloro-4-(4-chloro-phenyl)-1H-quinolin-2-one], the IC50 is under 2 µM with A375; 2 to 10 µM in test [1]; 10 to 20 µM in test [2]; 10 to 20 µM in test [3]; 10 to 20 µM in test [4].
In the case of `O=C(/C=C/c1nc2ccccc2[nH]1)c1c(-c2cccnc2)c2cc(Cl)ccc2[nH]c1=O` [Compound 6, 3-(3-1H-Benzoimidazol-2-yl-acryloyl)-6-chloro-4-pyridin-3-yl-1H-quinolin-2-one], the IC50 with A375 was over 20 µM; in test [1] it was 2 to 10 µM; in test [2], 2 to 10 µM; in test [3], 10 to 20 µM; in test [4], 10 to 20 µM.
For `O=C(/C=C/c1ccccc1)c1c(-c2cccnc2)c2cc(Cl)ccc2[nH]c1=O` [Compound 7, 6-Chloro-3-(3-phenyl-acryloyl)-4-pyridin-3-yl-1H-quinolin-2-one], the IC50 in the test on A375 was 10 to 20 µM; in test [1], 2 to 10 µM; in test [2], 10 to 20 µM; in test [3] it was 10 to 20 µM; in test [4], 10 to 20 µM.
Regarding `O=C(/C=C/c1nc2ccccc2[nH]1)c1c(-c2ccccn2)c2cc(Cl)ccc2[nH]c1=O` [Compound 8, 3-(3-1H-Benzoimidazol-2-yl-acryloyl)-6-chloro-4-pyridin-2-yl-1H-quinolin-2-one], the concentration for half-maximal inhibition (IC50) in the test on A375 was 10 to 20 µM; in test [1], over 20 µM; in test [2] it was over 20 µM; in test [3], over 20 µM; in test [4], over 20 µM.
In the case of `O=C(/C=C/c1nc2ccccc2[nH]1)c1c(-c2cccs2)c2cc(Cl)ccc2[nH]c1=O` [Compound 9, 3-(3-1H-Benzoimidazol-2-yl-acryloyl)-6-chloro-4-thiophen-2-yl-1H-quinolin-2-one], the half-inhibitory concentration (IC50) with A375 was in the range of 2 to 10 µM; in test [1] it was 2 to 10 µM; in test [2], 2 to 10 µM; in test [3] it was 10 to 20 µM; in test [4], 10 to 20 µM.
In the case of `O=C(/C=C/c1ccccc1)c1c(-c2cccs2)c2cc(Cl)ccc2[nH]c1=O` [Compound 10], the concentration for half-maximal inhibition (IC50) in the test on A375 was over 20 µM; in test [1], 2 to 10 µM; in test [2] it was 2 to 10 µM; in test [3], 10 to 20 µM; in test [4], 2 to 10 µM.
Take `O=C(/C=C/c1nc2ccccc2[nH]1)c1c(C2CCCCC2)c2cc(Cl)ccc2[nH]c1=O` [Compound 11, (E)-3-(3-(1H-benzo[d]imidazol-2-yl)acryloyl)-6-chloro-4-cyclohexylquinolin-2(1H)-one]: the concentration for half-maximal inhibition (IC50) in the test with A375 is under 2 µM; in test [1], 2 to 10 µM; in test [2], 2 to 10 µM; in test [3] it was 2 to 10 µM; in test [4] it was 2 to 10 µM.
In the case of `O=C(/C=C/c1nc2ccccc2[nH]1)c1c(-c2ccccc2)c2cc([N+](=O)[O-])ccc2[nH]c1=O` [Compound 13, 3-(3-1H-Benzoimidazol-2-yl-acryloyl)-6-nitro-4-phenyl-1H-quinolin-2-one], the IC50 in the test on A375 lay within 2 to 10 µM; in test [1], 2 to 10 µM; in test [2] it was 2 to 10 µM; in test [3], 10 to 20 µM; in test [4], 2 to 10 µM.
For the compound `Nc1ccc2[nH]c(=O)c(C(=O)CCc3nc4ccccc4[nH]3)c(-c3ccccc3)c2c1` [Compound 14, 6-Amino-3-(3-1H-benzoimidazol-2-yl-propionyl)-4-phenyl-1H-quinolin-2-one], the IC50 (with A375; in test [1]; in test [2]; in test [3]; in test [4]) was over 20 µM each time.
For the compound `Nc1ccc2[nH]c(=O)c(C(=O)/C=C/c3nc4ccccc4[nH]3)c(-c3ccccc3)c2c1` [Compound 15, 6-Amino-3-(3-1H-benzoimidazol-2-yl-acryloyl)-4-phenyl-1H-quinolin-2-one], the half-inhibitory concentration (IC50) with A375 is over 20 µM; in test [1], 10 to 20 µM; in test [2] it was 10 to 20 µM; in test [3] it was 10 to 20 µM; in test [4] it was over 20 µM.
As to `O=C(/C=C/c1ccccc1)c1c(-c2ccccc2)c2cc([N+](=O)[O-])ccc2[nH]c1=O` [Compound 16, 6-Nitro-4-phenyl-3-(3-phenyl-acryloyl)-1H-quinolin-2-one], the IC50 lay within 2 to 10 µM in the test with A375; 2 to 10 µM in test [1]; 2 to 10 µM in test [2]; 10 to 20 µM in test [3]; 2 to 10 µM in test [4].
As for `CN(C)c1ccc(/C=C/C(=O)c2c(-c3ccccc3)c3cc([N+](=O)[O-])ccc3[nH]c2=O)cc1` [Compound 17, 3-[3-(4-Dimethylamino-phenyl)-acryloyl]-6-nitro-4-phenyl-1H-quinolin-2-one], the half-inhibitory concentration (IC50) (in the test on A375; in test [1]; in test [2]; in test [3]; in test [4]) was over 20 µM in each case.
`O=C(/C=C/c1nc2ccccc2[nH]1)c1c(-c2ccccc2)c2cc(C(F)(F)F)ccc2[nH]c1=O` [Compound 19, 3-(3-1H-Benzoimidazol-2-yl-acryloyl)-4-phenyl-6-trifluoromethyl-1H-quinolin-2-one]: the half-inhibitory concentration (IC50) with A375 was 2 to 10 µM; in test [1], 2 to 10 µM; in test [2], 2 to 10 µM; in test [3] it was 10 to 20 µM; in test [4] it was 10 to 20 µM.
Take `O=C(/C=C/c1nc2ccccc2[nH]1)c1c(-c2ccccc2)c2cc(F)ccc2[nH]c1=O` [Compound 20, 3-(3-1H-Benzoimidazol-2-yl-acryoyl)-6-fluoro-4-phenyl-1H-quinolin-2-one]: the IC50 in the test with A375 was under 2 µM; in test [1] it was 10 to 20 µM; in test [2] it was over 20 µM; in test [3], 10 to 20 µM; in test [4], over 20 µM.
In the case of `COc1ccc2[nH]c(=O)c(C(=O)/C=C/c3nc4ccccc4[nH]3)c(-c3ccccc3)c2c1` [Compound 21, 3-(3-1H-Benzoimidazol-2-yl-acryloyl)-6-methoxy-4-phenyl-1H-quinolin-2-one], the IC50 in the test on A375 was 2 to 10 µM; in test [1], 10 to 20 µM; in test [2] it was 10 to 20 µM; in test [3], over 20 µM; in test [4], 10 to 20 µM.
As for `O=C(/C=C/c1nc2ccccc2[nH]1)c1c(-c2ccccc2)c2ccncc2[nH]c1=O` [Compound 22, 3-(3-1H-Benzoimidazol-2-yl-acryloyl)-4-phenyl-1H-[1,7]naphthyridin-2-one], the IC50 was over 20 µM in the test with A375; 10 to 20 µM in test [1]; 10 to 20 µM in test [2]; 10 to 20 µM in test [3]; 10 to 20 µM in test [4].

Source of the values: patent US10577349B2 (Sanford Burnham Prebys Medical Discovery Institute, priority 2015, dated 2020).
